{"source": "patent US9629830B2", "about": "“EphA4 inhibitors as neuroprotective agents” (The Hong Kong University of Science and Technology, priority 2013, dated 2017)", "key": {"[1]": {"assay": "In vitro stability assay in mouse serum (UPLC-MS/MS)", "format": "in vitro ADME", "conditions": "3 μM, over the 360-min incubation period"}, "[2]": {"assay": "Blood and brain penetration assay after single oral administration", "format": "in vivo, mouse", "conditions": "for half-life: C57Bl/6, mouse, po, 50 mg/kg", "protocol": "Five microliters of sample was injected and eluted by the following program at the flow rate of 0.6 ml/min: 0-4.0 min, 10˜35% ACN; 4.0-4.1 min, 100% ACN; 7.0-7.1 min, 100-10% ACN, 7.1-10 min, 10% ACN. Detection of Rhy was carried out with the positive ionization mode. The ESI conditions were as follows: declustering potential 120 V, entrance potential 10 V, collision cell exit potential 12 V, collision energies 38 V, curtain gas 50 (arbitrary units), collision gas 10 (arbitrary units), ion spray voltage […], source temperature 500° C., ion source gas 1:45 (arbitrary units), ion source gas 2:60 (arbitrary units).\nMale C57Bl/6 mice (16-week-old) were obtained from the Hong Kong University of Science and Technology (HKUST) Animal Care Facility and acclimatized in the laboratory a week before the study. […] The procedures in this study were approved by HKUST Animal Ethics Committee and conducted in accordance with the Code of Practice and Use of Animals for Experimental Purpose.\nPlasma was obtained by centrifuging the blood at 3,800×g at 4° C. for 10 min. Mouse brains were collected after a 30-min cardiac perfusion with 0.9% saline. Whole mouse brain with the addition of 80 μL 0.9% saline was subjected to homogenization for 10 s (Precellys Minilys) at 4000 rpm with ceramic beads. […] Samples were centrifuged at 12,000×g at 4° C. for 10 min. The supernatants were transferred to a new tube and the remaining samples were subjected to another extraction. The supernatants obtained from the two extractions were pooled and evaporated to dryness. The dried samples were dissolved in 0.3 mL methanol, vortexed for 30 s followed by ultrasonication for 5 min and centrifuged at 17,900×g for 5 min. The supernatant (80 μL) was transferred into vial for UPLC-MS/MS analysis."}, "APP/PS1 mice": {"test_system": "APP/PS1 mice", "assay": "Adult neurogenesis (Ki67 staining) in hippocampus of APP/PS1 mice", "format": "in vivo, mouse", "conditions": "Rhy oral 50 mg/kg for over three months, versus control-treated mice", "source_text": "The mouse brains were sectioned and stained with Ki67 antibody, which labelled all cells in the cell cycle, but not those differentiated progenitors and newly born neurons."}, "[3]": {"molecular_target": "T1, extracellular domain of EphB2 (Homo sapiens, UniProt P29323)", "T1 construct": "purchased R&D Systems", "T1 sequence (P29323 19-543 limits assumed)": "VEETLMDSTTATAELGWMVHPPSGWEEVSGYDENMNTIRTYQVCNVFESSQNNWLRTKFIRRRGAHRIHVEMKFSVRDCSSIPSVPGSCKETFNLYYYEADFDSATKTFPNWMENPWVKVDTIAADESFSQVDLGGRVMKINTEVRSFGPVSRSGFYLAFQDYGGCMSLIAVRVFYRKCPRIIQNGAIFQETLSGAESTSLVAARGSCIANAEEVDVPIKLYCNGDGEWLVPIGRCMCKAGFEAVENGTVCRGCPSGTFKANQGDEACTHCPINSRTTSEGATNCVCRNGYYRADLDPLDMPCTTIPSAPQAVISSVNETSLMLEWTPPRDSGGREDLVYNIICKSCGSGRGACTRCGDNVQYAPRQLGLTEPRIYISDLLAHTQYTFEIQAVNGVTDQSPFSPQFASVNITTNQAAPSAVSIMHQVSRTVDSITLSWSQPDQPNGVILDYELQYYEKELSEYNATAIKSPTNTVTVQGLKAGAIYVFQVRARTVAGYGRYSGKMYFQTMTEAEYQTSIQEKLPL", "assay": "In vitro pull-down of recombinant EphB2-Fc with biotinylated Rhy on streptavidin beads", "format": "binding", "conditions": "western blot", "protocol": "For the pull-down analysis, Bio-Rhy was bound to streptavidin magnetic beads for 1 h, the beads was then incubated with recombinant EphA4-Fc or EphB2-Fc in the presence of 0.5% BSA for 1 h. After incubation, the beads were washed 4 times with DPBS and the presence of Eph in the complex was determined by western blot analysis."}, "EphA4": {"molecular_target": "T2, EphA4 (Rattus norvegicus, UniProt D3ZZK3)", "T2 construct": "endogenous in cells; host or cells: primary rat cortical neurons (A5), primary rat hippocampal neurons (A7)", "T2 sequence (D3ZZK3 20-986)": "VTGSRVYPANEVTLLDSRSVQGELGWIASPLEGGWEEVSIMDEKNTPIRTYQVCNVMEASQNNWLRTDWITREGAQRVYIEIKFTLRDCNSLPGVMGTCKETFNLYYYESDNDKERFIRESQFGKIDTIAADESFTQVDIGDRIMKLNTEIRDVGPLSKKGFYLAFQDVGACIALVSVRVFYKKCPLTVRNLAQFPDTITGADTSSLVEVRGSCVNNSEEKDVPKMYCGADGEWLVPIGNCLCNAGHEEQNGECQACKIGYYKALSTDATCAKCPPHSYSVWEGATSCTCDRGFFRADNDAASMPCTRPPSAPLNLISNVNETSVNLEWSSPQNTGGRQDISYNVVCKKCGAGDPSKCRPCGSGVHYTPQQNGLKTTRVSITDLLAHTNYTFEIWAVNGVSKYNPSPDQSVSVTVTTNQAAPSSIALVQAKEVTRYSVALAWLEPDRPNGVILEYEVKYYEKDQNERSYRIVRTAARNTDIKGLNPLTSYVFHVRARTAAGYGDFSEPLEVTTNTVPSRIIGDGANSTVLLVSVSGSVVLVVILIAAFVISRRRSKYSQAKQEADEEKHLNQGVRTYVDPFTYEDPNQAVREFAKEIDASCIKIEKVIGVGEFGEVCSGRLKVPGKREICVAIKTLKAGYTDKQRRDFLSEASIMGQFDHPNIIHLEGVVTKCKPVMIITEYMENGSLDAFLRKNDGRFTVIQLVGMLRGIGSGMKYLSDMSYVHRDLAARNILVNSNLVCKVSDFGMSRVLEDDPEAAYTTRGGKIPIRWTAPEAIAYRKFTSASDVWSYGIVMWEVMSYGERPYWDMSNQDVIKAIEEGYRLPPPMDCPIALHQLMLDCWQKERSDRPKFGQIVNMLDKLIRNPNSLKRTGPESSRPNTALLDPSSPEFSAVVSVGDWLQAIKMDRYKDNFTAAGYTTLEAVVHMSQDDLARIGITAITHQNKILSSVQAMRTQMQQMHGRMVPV", "assay": "ephrin-A1-induced EphA4 tyrosine phosphorylation in cortical neurons (immunoprecipitation, western blot)", "format": "cell-based", "conditions": "cortical neurons pretreated with compound, then ephrin-A1; western blot for P-Tyr", "protocol": "Primary cortical and hippocampal neurons were prepared from embryonic day 18-19 rat embryos as described previously^24. Briefly, cortical neurons (6×10^6 per plate) were plated on 100-mm culture dishes coated with poly-D-lysine (12.5 μg/mL; Sigma). Rat hippocampal neurons were seeded on 18-mm coverslips coated with poly-D-lysine (50 μg/mL) at a density of 0.5×10^5/18-mm coverslip for immunocytochemical analysis, 0.1×10^5/18-mm coverslip for growth cone collapse assay, or 1×10^5 or 1.5×10^5/18-mm coverslip for mEPSC recording. Neurons were fed Neurobasal medium (Invitrogen) supplemented with 2% B27 (Invitrogen). Acute brain slices were prepared from P15-P17 Sprague-Dawley rats. Briefly, the rats were rapidly decapitated, and their brains were immersed in ice-cold artificial cerebrospinal fluid (ACSF). The hippocampus was dissected, and 300-μm-thick slices were prepared using a vibratome (Lieca). The slices were then transferred into an incubating chamber containing circulating ACSF equilibrated with 95% O2+5% CO2 and held at room temperature for at least 2 h for recovery prior to experiments^65.\nFor the immunoprecipitation assay, lysates were immunoprecipitated with the corresponding antibody for 2 h at 4° C. followed by incubation with protein G Sepharose for 1 h at 4° C.^24. […] EphA4 tyrosine phosphorylation was detected by western blot analysis using 4G10 antibody. […]"}, "[4]": {"conditions": "mouse, single oral 50 mg/kg, rounded"}}, "note": "“Also recorded” adds a separate entry of the source. Read-outs that look alike come from different tables or passages of the source.", "data": [{"smiles": "CC[C@H]1CN2CC[C@]3(C(=O)Nc4ccccc43)[C@@H]2C[C@@H]1/C(=C\\OC)C(=O)OC", "note": "[Rhy, methyl (7β,16E,20α)-16-(methoxymethylene)-2-oxocorynoxan-17-oate]", "values": [{"measurement": "reduction of Rhy concentration in serum", "setting": "[1]", "result": "~20", "unit": "%"}, {"measurement": "detection in plasma and brain", "setting": "[2]; 10 min after single oral 50 mg/kg", "result": "readily detected"}, {"measurement": "level of Rhy as percentage of Cmax", "setting": "[2]; after 3 h of administration, in both plasma and brain", "result": 10, "unit": "%"}, {"measurement": "half-life", "setting": "[2]; male, brain, mouse, single oral 50 mg/kg, perfused brain, read-out: t1/2 in brain (converted)", "result": "1.79 ± 0.455", "unit": "h"}, {"measurement": "half-life", "setting": "[2]; male, brain, mouse, single oral 50 mg/kg, rounded, read-out: t1/2 in brain (converted)", "result": "~2", "unit": "h"}, {"measurement": "half-life", "setting": "[2]; male, plasma, mouse, single oral 50 mg/kg, read-out: t1/2 in plasma", "result": "1.35 ± 0.201", "unit": "h"}, {"measurement": "Cmax", "setting": "[2]; male, C57Bl/6, plasma, mouse, single oral 50 mg/kg", "result": "583 ± 32.9", "unit": "ng/mL"}, {"measurement": "Tmax", "setting": "[2]; male, C57Bl/6, plasma, mouse, single oral 50 mg/kg, read-out: Tmax in plasma (converted)", "result": 0.514, "unit": "h"}, {"measurement": "Tmax", "setting": "[2]; male, C57Bl/6, mouse, single oral 50 mg/kg, perfused brain, read-out: Tmax in brain (converted)", "result": 0.917, "unit": "h"}, {"measurement": "blood-brain barrier passage", "setting": "[2]; mouse, oral administration", "result": "can pass through the blood-brain barrier"}, {"measurement": "Cmax in brain", "setting": "[2]; mouse, single oral 50 mg/kg, perfused brain", "result": "442.73±27.38", "unit": "ng/brain"}, {"measurement": "time at which brain level peaked", "setting": "[2]; [4]", "result": "~1", "unit": "h"}, {"measurement": "time at which plasma concentration peaked", "setting": "[2]; [4]", "result": "~0.5", "unit": "h"}, {"measurement": "time at which plasma concentration was reduced by 50%", "setting": "[2]; [4]", "result": "~1.5", "unit": "h"}, {"measurement": "number of Ki-67+ neural progenitors in dentate gyrus", "setting": "APP/PS1 mice", "result": "increased the number of Ki-67+ neural progenitors"}, {"measurement": "binding to the extracellular domain of EphB2 (pull-down, words)", "setting": "[3]", "result": "not that of EphB2"}, {"measurement": "ephrin-A1-induced EphA4 tyrosine phosphorylation", "setting": "EphA4", "result": "reduced the specific phosphorylation; also recorded: inhibited Eph-ephrin-A interaction and EphA4 tyrosine phosphorylation"}]}]}
